From paper PMC11240139, “Exploring the antitumor potential of novel quinoline derivatives via tubulin polymerization inhibition in breast cancer; design, synthesis and molecular docking” (RSC Advances, 2024)

Assays:
Type in all cases: cell-based
SK-MEL-2 (melanoma) = assay: NCI-60 SRB cytotoxicity screen
HS 578T (breast cancer) = assay: NCI-60 SRB cytotoxicity screen
DU-145 (prostate cancer) = assay: NCI-60 SRB cytotoxicity screen
LOX IMVI (melanoma) = assay: NCI-60 SRB cytotoxicity screen
CCRF-CEM (leukemia) = assay: NCI-60 SRB cytotoxicity screen
MDA-MB-231 cells = assay: Cell cycle analysis by flow cytometry (PI); details: MDA-MB-231, IC50 dose, 24 h; control 10.42%
Procedure: Propidium Iodide Flow Cytometry Kit for Cell Cycle Analysis (Abcam) was used according to manufacturer's instructions. Briefly, MDA-MB 231 cells (2 × 10^5 cells) were seeded in 6-well plates and cultured for 24 h. […] Cells were collected, washed with PBS and centrifuged. Subsequently, the cells were re-suspended and fixed in 66% ethanol on ice for at least 2 h. The cells were stained with a working solution containing propidium iodide (PI) in the dark at 37 °C for 30 min. DNA content of the cells were measured by flow cytometry using FACSCalibur (BD Biosciences, Mountain View, CA). The data were analyzed using the CellQuest software (BD Biosciences).[21]

IGROV1 (ovarian cancer) = assay: NCI-60 SRB cytotoxicity screen
[1] = tested on: A549/ATCC (non-small cell lung cancer); assay: NCI-60 SRB cytotoxicity screen
KM12 (colon cancer) = assay: NCI-60 SRB cytotoxicity screen
RXF 393 (renal cancer) = assay: NCI-60 SRB cytotoxicity screen
OVCAR-5 (ovarian cancer) = assay: NCI-60 SRB cytotoxicity screen
[2] = tested on: EKVX (non-small cell lung cancer); assay: NCI-60 SRB cytotoxicity screen
[3] = tested on: HOP-62 (non-small cell lung cancer); assay: NCI-60 SRB cytotoxicity screen
SNB-75 (CNS cancer) = assay: NCI-60 SRB cytotoxicity screen
RPMI-8226 (leukemia) = assay: NCI-60 SRB cytotoxicity screen
ACHN (renal cancer) = assay: NCI-60 SRB cytotoxicity screen
[4] = Homo sapiens, single dose 10 μM, read-out: growth inhibition (GI%)
[5] = Homo sapiens, five-dose assay, read-out: LC50 (the source's name)
[6] = Homo sapiens, RXF 393, five-dose assay
[7] = Homo sapiens, HOP-62, five-dose assay

`CCc1cccc2cc(-c3cc(-c4cc(OC)c(OC)c(OC)c4)[nH]c(=O)c3C#N)c(Cl)nc12` [Compound 4c, 4-(2-Chloro-8-ethylquinolin-3-yl)-2-oxo-6-(3,4,5-trimethoxyphenyl)-1,2-dihydropyridine-3-carbonitrile] gave a GI50 (SK-MEL-2 (melanoma); Homo sapiens, SK-MEL-2, five-dose assay) of 39.8 µM, a CC50 (SK-MEL-2 (melanoma); Homo sapiens, SK-MEL-2, five-dose assay, read-out: LC50 (the source's name)) of over 100 µM and an inhibition at 10 µM (SK-MEL-2 (melanoma); Homo sapiens, SK-MEL-2, single dose 10 μM, read-out: growth inhibition (GI%)) of 29.8%. For the same compound, the TGI (SK-MEL-2 (melanoma); SK-MEL-2, five-dose assay) was over 100 µM, the GI50 (HS 578T (breast cancer); Homo sapiens, five-dose assay) was 2.38 µM and the LC50 (50% lethal concentration) (HS 578T (breast cancer); Homo sapiens, five-dose assay) was over 100 µM. For the same compound, the inhibition at 10 µM (HS 578T (breast cancer); [4]) was over 100%, the TGI (HS 578T (breast cancer); five-dose assay) was 7.26 µM and the “growth inhibition (GI%)” value (HS 578T (breast cancer); single dose 10 μM) was “lethal effect”. The TGI (DU-145 (prostate cancer); DU-145, five-dose assay) was 38.00 µM, the GI50 (DU-145 (prostate cancer); Homo sapiens, DU-145, five-dose assay) was 15.5 µM and the CC50 (DU-145 (prostate cancer); Homo sapiens, DU-145, five-dose assay, read-out: LC50 (the source's name)) was 93.5 µM. For the same compound, the inhibition at 10 µM (DU-145 (prostate cancer); Homo sapiens, DU-145, single dose 10 μM, read-out: growth inhibition (GI%)) was 80.5%, the GI50 (LOX IMVI (melanoma); Homo sapiens, five-dose assay) was 13.5 µM and the CC50 (LOX IMVI (melanoma); [5]) was 81.3 µM. For the same compound, the inhibition at 10 µM (LOX IMVI (melanoma); [4]) was 91.6%, the TGI (LOX IMVI (melanoma); five-dose assay) was 33.20 µM and the GI50 (CCRF-CEM (leukemia); Homo sapiens, five-dose assay) was 12 µM. It also gave an LC50 (CCRF-CEM (leukemia); Homo sapiens, five-dose assay) of over 100 µM, an inhibition at 10 µM (CCRF-CEM (leukemia); [4]) of 80.4% and a TGI (CCRF-CEM (leukemia); five-dose assay) of over 100 µM. The “cells population at G2 and M phases” value (MDA-MB-231 cells) was 22.84%, the GI50 (IGROV1 (ovarian cancer); Homo sapiens, IGROV-1, IGROV1, five-dose assay) was 12.2 µM and the CC50 (IGROV1 (ovarian cancer); Homo sapiens, IGROV-1, IGROV1, five-dose assay, read-out: LC50 (the source's name)) was over 100 µM. For the same compound, the inhibition at 10 µM (IGROV1 (ovarian cancer); Homo sapiens, IGROV-1, IGROV1, single dose 10 μM, read-out: growth inhibition (GI%)) was 66.3%, the TGI (IGROV1 (ovarian cancer); IGROV1, five-dose assay) was 46.30 µM and the GI50 ([1]; Homo sapiens, five-dose assay) was 12.2 µM. For the same compound, the CC50 [1, 5] was over 100 µM, the inhibition at 10 µM [1, 4] was 88.2% and the TGI ([1]; five-dose assay) was 48.70 µM. For the same compound, the GI50 (KM12 (colon cancer); Homo sapiens, KM12, five-dose assay) was 33.6 µM, the CC50 (KM12 (colon cancer); Homo sapiens, KM12, five-dose assay, read-out: LC50 (the source's name)) was over 100 µM and the inhibition at 10 µM (KM12 (colon cancer); Homo sapiens, KM12, single dose 10 μM, read-out: growth inhibition (GI%)) was 55.1%. The TGI (KM12 (colon cancer); KM12, five-dose assay) was over 100 µM, the GI50 (RXF 393 (renal cancer); [6]) was 2.21 µM and the LC50 (RXF 393 (renal cancer); [6]) was 35.4 µM. The inhibition at 10 µM (RXF 393 (renal cancer); Homo sapiens, RXF 393, single dose 10 μM, read-out: growth inhibition (GI%)) was over 100%, the TGI (RXF 393 (renal cancer); RXF 393, five-dose assay) was 6.69 µM and the “growth inhibition (GI%)” value (RXF 393 (renal cancer); RXF 393, single dose 10 μM) was “lethal effect”. The GI50 (OVCAR-5 (ovarian cancer); Homo sapiens, OVCAR-5, five-dose assay) was 48.4 µM, the CC50 (OVCAR-5 (ovarian cancer); Homo sapiens, OVCAR-5, five-dose assay, read-out: LC50 (the source's name)) was over 100 µM and the inhibition at 10 µM (OVCAR-5 (ovarian cancer); Homo sapiens, OVCAR-5, single dose 10 μM, read-out: growth inhibition (GI%)) was 33.3%. For the same compound, the TGI (OVCAR-5 (ovarian cancer); OVCAR-5, five-dose assay) was over 100 µM, the GI50 ([2]; Homo sapiens, five-dose assay) was 28.6 µM and the CC50 [2, 5] was over 100 µM. The inhibition at 10 µM [2, 4] was 50.1%, the TGI ([2]; five-dose assay) was over 100 µM and the TGI ([3]; HOP-62, five-dose assay) was 78.90 µM. The GI50 [3, 7] was 20.7 µM, the LC50 [3, 7] was over 100 µM and the inhibition at 10 µM ([3]; Homo sapiens, HOP-62, single dose 10 μM, read-out: growth inhibition (GI%)) was 87.9%. For the same compound, the inhibition at 10 µM (SNB-75 (CNS cancer); Homo sapiens, SNB-75, SNB-75, single dose 10 μM, read-out: growth inhibition (GI%)) was over 100%, the GI50 (SNB-75 (CNS cancer); Homo sapiens, SNB-75, five-dose assay) was 2.38 µM and the CC50 (SNB-75 (CNS cancer); Homo sapiens, SNB-75, five-dose assay, read-out: LC50 (the source's name)) was 52.6 µM. For the same compound, the TGI (SNB-75 (CNS cancer); SNB-75, five-dose assay) was 16.90 µM, the GI50 (RPMI-8226 (leukemia); Homo sapiens, RPMI-8226, five-dose assay) was 5.16 µM and the CC50 (RPMI-8226 (leukemia); Homo sapiens, RPMI-8226, five-dose assay, read-out: LC50 (the source's name)) was over 100 µM. The inhibition at 10 µM (RPMI-8226 (leukemia); Homo sapiens, RPMI-8226, single dose 10 μM, read-out: growth inhibition (GI%)) was 74.5%, the TGI (RPMI-8226 (leukemia); RPMI-8226, five-dose assay) was over 100 µM and the GI50 (ACHN (renal cancer); Homo sapiens, five-dose assay) was 15.6 µM. The LC50 (ACHN (renal cancer); Homo sapiens, five-dose assay) was 61.8 µM, the inhibition at 10 µM (ACHN (renal cancer); [4]) was 75.7% and the TGI (ACHN (renal cancer); five-dose assay) was 31.00 µM.
